Laboratory results reported in paper PMC3525568, “The Natively Disordered Loop of Bcl-2 Undergoes Phosphorylation-Dependent Conformational Change and Interacts with Pin1” (PLoS ONE, 2012).
Where a SMILES comes first, the peptide text is derived from it. [ ]: non-standard residue; d: D form. pS = N[C@@H](COP(=O)(O)O)C(=O)O

Tests used:
Pin1 [1] = target: T1, Pin1 (Homo sapiens, UniProt Q13526); assay: 1H-15N HSQC of 15N-Pin1 with peptide
JNK [2] = assay: Phosphorylation of Bcl-2 loop peptides by JNK (HPLC); format: biochemical; conditions: peptide 200 µM, JNK 10 µM, 10 mM Tris-HCl pH 7.5, 25 mM MgCl2, 1 mM EGTA, 1 mM ATP, 30°C, 1 h; C-18 HPLC, 225 nm
Method: (§1) For the phosphorylation of Bcl-2 by JNK, the purified Bcl-2 (6 µM) was incubated with 0.5 µM JNK for 1 h at 30°C in a buffer containing 10 mM Tris-HCl pH 7.5, 25 mM MgCl2, 1 mM EGTA, 1 mM ATP, 1 µCi γ-^32P-ATP, and 250 µM PMSF. For the phosphorylation of Bcl-2 by ERK2, ERK2 was incubated with purified Bcl-2 in a buffer containing 50 mM Tris-HCl, 10 mM MgCl2, 2 mM dithiothreitol (DTT), 1 mM EGTA, and 0.01% Brij 35 detergent, pH 7.5. The samples were separated on 12.5% gels by SDS-PAGE and visualized using autoradiography.
(§2) The loop peptides (200 µM) were mixed with JNK or ERK2 (10 µM) in the reaction buffer as described above in the “Phosphorylation of Bcl-2”. The reaction was performed at 30°C for 1 h. The samples were passed through a Ni^2+-NTA column to remove kinases fused with the histidine-tag, and the flow-through samples were combined and loaded on a C-18 column for HPLC analysis. The samples (20 µl) were injected into the C-18 column with a flow rate of 1 ml/min. The peptide was eluted with a linear gradient of acetonitrile from 0 to 30%, and the peptide peaks were detected at 225 nm.
(§3) Supplementary file pone.0052047.s001.tif: Figure S1 Phosphorylation of Bcl-2 in the loop domain by ERK2 and JNK. (A–B) Different peptides (200 µM) were added into the reaction mixture with either (A) JNK (10 µM) or (B) ERK2 (10 µM). After reaction at 30°C for 1 h, the samples were heated at 90°C to inactivate the kinase and loaded onto C-18 column for reverse phase-HPLC analysis. (C) Point mutations of Bcl-2 (T56A and S87A) were used for the kinase reaction as described in “Materials and methods”, and the phosphorylation reactions were analyzed by using γ-^32P-ATP and followed by autoradiography. […] (E) The wild-type Bcl-2 and the flexible loop-deletion Bcl-2 mutant Bcl-2, Δ(V35–V89):6A were subject to the phosphorylation reactions by ERK2 and JNK. 1, Bcl-2 with ERK2; 2, Bcl-2Δ(V35–V89):6A with ERK2; 3, Bcl-2 with JNK; 4, Bcl-2Δ(V35–V89):6A with JNK. (TIF) Click here for additional data file.

ERK2 [3] = assay: Phosphorylation of Bcl-2 loop peptides by ERK2 (HPLC); format: biochemical; conditions: peptide 200 µM, ERK2 10 µM, 50 mM Tris-HCl, 10 mM MgCl2, 2 mM DTT, 1 mM EGTA, 0.01% Brij 35, pH 7.5, 30°C, 1 h; C-18 HPLC, 225 nm
Method: as §1, §2, §3

JNK [4] = assay: Phosphorylation of Bcl-2 proteins by JNK (γ-32P-ATP, autoradiography); format: biochemical; conditions: Bcl-2 6 µM, JNK 0.5 µM, 1 h at 30°C, pH 7.5, γ-32P-ATP, SDS-PAGE
Method: as §1
(§4) Supplementary file pone.0052047.s001.tif: Figure S1 Phosphorylation of Bcl-2 in the loop domain by ERK2 and JNK. (A–B) Different peptides (200 µM) were added into the reaction mixture with either (A) JNK (10 µM) or (B) ERK2 (10 µM). After reaction at 30°C for 1 h, the samples were heated at 90°C to inactivate the kinase and loaded onto C-18 column for reverse phase-HPLC analysis. (C) Point mutations of Bcl-2 (T56A and S87A) were used for the kinase reaction as described in “Materials and methods”, and the phosphorylation reactions were analyzed by using γ-^32P-ATP and followed by autoradiography. […] (E) The wild-type Bcl-2 and the flexible loop-deletion Bcl-2 mutant Bcl-2, Δ(V35–V89):6A were subject to the phosphorylation reactions by ERK2 and JNK. 1, Bcl-2 with ERK2; 2, Bcl-2Δ(V35–V89):6A with ERK2; 3, Bcl-2 with JNK; 4, Bcl-2Δ(V35–V89):6A with JNK. […]

ERK2 [5] = assay: Phosphorylation of Bcl-2 proteins by ERK2 (γ-32P-ATP, autoradiography); format: biochemical; conditions: 50 mM Tris-HCl, 10 mM MgCl2, 2 mM DTT, 1 mM EGTA, 0.01% Brij 35, pH 7.5, SDS-PAGE
Method: as §1, §4

Pin1 [6] = target: T1, Pin1; assay: 1H-15N HSQC titration of 15N-Pin1; conditions: reference: unphosphorylated S87 peptide; sites S87
Pin1 [7] = target: T1, Pin1; assay: Binding of peptides to 15N-labeled Pin1 by 2D 1H-15N HSQC NMR titration; parameters: decahistidine (10His) (N); made in house; own knowledge; conditions: 0.1 mM 15N-labeled Pin1, 90% H2O/10% D2O, 20 mM phosphate pH 7.0, 20 mM NaCl, 1 mM DTT, 0.01% NaN3, 300 K; HSQC chemical shift change vs ligand/protein ratio
Method: NMR data were acquired at 300 K on a Bruker Avance 600 equipped with a cryoprobe accessory. The NMR samples contained 0.1 mM ^15N-labeled Pin 1 in 90% H2O/10% D2O in 20 mM phosphate buffer, pH 7.0, 20 mM NaCl, 1 mM DTT, 0.01% NaN3. Chemical shift perturbations were monitored with 2D ^1H-^15N heteronuclear single quantum correlation spectroscopy (HSQC) upon addition of peptides. NMR spectra were processed using Bruker Topspin1.3. For the dissociation constant determination, lyophilized aliquots of peptides were mixed with ^15N-labeled Pin1 with different molar ratios and 2D ^15N HSQC was recorded. The dissociation constant, KD is expressed as [P]*[L]/[PL] and calculated as previously described, [21], [22].
Figure 3 Pin 1 binds to the phosphopeptide derived from the flexible loop of Bcl-2. The ^15N-labeled Pin1 (0.1 mM) was recorded with (A) 0.8 mM S87 and (B) phosphorylated S87 (pS87). The ^1H-^15N-HSQC spectra with or without peptide are show in blue and red, respectively. (C, D) Some of the amino acid chemical shifts change with the increasing peptide concentration. The arrows show the direction of chemical shift perturbations with an increasing concentration of ligand. (E, F) The relationship between chemical shift change and the ratio between ligand and protein was drawn. Values of KD were calculated from the graphs using the equation described in “Materials and methods”.

Compound	degree of phosphorylation by JNK (JNK [2])	degree of phosphorylation by ERK2 (ERK2 [3])	also measured
Bcl-2 (from UniProt P10415) pT74 peptide	–	–	binding against the reference (Pin1 [1]; reference: unphosphorylated T74 peptide, sites T74): gained
GPALSPVPPV [S87, synthetic peptide derived from the Bcl-2 loop covering S87]	preferred phosphorylation	preferred phosphorylation	–
Bcl-2/T56A: single mutant form of Bcl-2 protein	–	–	JNK-mediated phosphorylation of Bcl-2 protein (JNK [4]): abolished
Bcl-2/S87A: single mutant form of Bcl-2 protein	–	–	JNK-mediated phosphorylation of Bcl-2 protein (JNK [4]): affected; ERK2-mediated phosphorylation of Bcl-2 protein (ERK2 [5]): affected
Bcl-2 (from UniProt P10415) pT56 peptide	–	–	binding against the reference (Pin1 [1]; reference: unphosphorylated T56 peptide, sites T56): gained
Bcl-2 (from UniProt P10415) pS87 peptide	–	–	binding against the reference (Pin1 [6]): gained; reference no interaction
PLQTPAAPGA [T74, synthetic peptide derived from the Bcl-2 loop covering T74]	poorly phosphorylated	poorly phosphorylated	–
CC(C)C[C@H](NC(=O)[C@H](C)NC(=O)[C@@H]1CCCN1C(=O)CN)C(=O)N[C@@H](COP(=O)(O)O)C(=O)N1CCC[C@H]1C(=O)N[C@H](C(=O)N1CCC[C@H]1C(=O)N1CCC[C@H]1C(=O)N[C@H](C(=O)O)C(C)C)C(C)C [pS87] (H-GPAL[pS]PVPPV-OH)	–	–	Kd (Pin1 [7]): ~140 µM
PVARTSPLQT [S70, synthetic peptide derived from the Bcl-2 loop covering S70]	poorly phosphorylated	poorly phosphorylated	–
QPGHTPHPAA [T56, synthetic peptide derived from the Bcl-2 loop covering T56]	able to phosphorylate the T56 peptide to a similar level	able to phosphorylate the T56 peptide to a similar level	–
